Data as given in ChEMBL document CHEMBL1147522, “1,2,3,4-tetrahydrocarbazoles as 5-HT6 serotonin receptor ligands” (Bioorg Med Chem Lett, 2004).

Biological target: 5-hydroxytryptamine receptor 6 (Homo sapiens, UniProt P50406)
Experiment: Ability to displace [3H]LSD from human 5-hydroxytryptamine 6 receptor transiently expressed in COS-7 cells
Type: cell-based

Sequence of 5-hydroxytryptamine receptor 6 (P50406 whole entry): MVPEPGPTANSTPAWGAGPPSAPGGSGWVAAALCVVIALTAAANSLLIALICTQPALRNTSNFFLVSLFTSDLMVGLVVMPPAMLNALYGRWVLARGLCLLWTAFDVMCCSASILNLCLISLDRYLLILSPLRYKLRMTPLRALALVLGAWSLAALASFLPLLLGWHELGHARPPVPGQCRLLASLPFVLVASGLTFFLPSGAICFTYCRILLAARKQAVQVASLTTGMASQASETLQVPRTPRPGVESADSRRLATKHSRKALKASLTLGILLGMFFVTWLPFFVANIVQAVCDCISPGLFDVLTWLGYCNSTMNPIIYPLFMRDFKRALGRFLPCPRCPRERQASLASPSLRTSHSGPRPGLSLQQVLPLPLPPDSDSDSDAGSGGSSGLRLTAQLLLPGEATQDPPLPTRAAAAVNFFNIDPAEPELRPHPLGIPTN

| Ki [nM] | SMILES |
| --- | --- |
| 2.4 | COc1ccc2c(c1)c1c(n2S(=O)(=O)c2ccc(I)cc2)CCCC1CN(C)C (stereo unspecified) |
| 14 | COc1ccc2c(c1)c1c(n2S(=O)(=O)c2cccc3ccccc23)CCCC1CN(C)C (stereo unspecified) |
| 2 | COc1ccc2c(c1)c1c(n2S(=O)(=O)c2ccc(N)cc2)CCCC1CN(C)C (stereo unspecified) |
| 5 | COc1ccc2c(c1)c1c(n2S(=O)(=O)c2ccc(Cl)cc2)CCCC1CN(C)C (stereo unspecified) |
| 200 | COc1ccc2c(c1)c1c(n2S(=O)(=O)Cc2ccccc2)CCCC1CN(C)C (stereo unspecified) |
| 2.3 | COc1ccc2c(c1)c1c(n2S(=O)(=O)c2ccccc2)CCCC1CN(C)C (stereo unspecified) |
| 5.1 | COc1ccc2c(c1)c1c(n2S(=O)(=O)c2ccc3ccccc3c2)CCCC1CN(C)C (stereo unspecified) |
| 6000 | COc1ccc2c(c1)c1c(n2C(=O)c2ccc(N)cc2)CCCC1 |
| 9.4 | COc1ccc2c(c1)c1c(n2S(=O)(=O)c2ccc(C)cc2)CCCC1CN(C)C (stereo unspecified) |
| 49 | Nc1ccc(S(=O)(=O)n2c3ccccc3c3ccccc32)cc1 |
| 0.3 | COc1ccc(OC)c(S(=O)(=O)n2c3c(c4cc(OC)ccc42)C(CN(C)C)CCC3)c1 (stereo unspecified) |
| 29 | COc1ccc2c(c1)c1c(n2S(=O)(=O)c2ccc(N)cc2)CCCC1 |
| 64 | CN(C)CC1CCCc2c1c1ccccc1n2Cc1ccccc1 (stereo unspecified) |
| 7.6 | COc1ccc2c(c1)c1c(n2S(=O)(=O)c2cccc3cccnc23)CCCC1CN(C)C (stereo unspecified) |
| 47 | COc1ccc(S(=O)(=O)n2c3c(c4cc(OC)ccc42)C(CN(C)C)CCC3)cc1 (stereo unspecified) |
| 6000 | COc1ccc2c(c1)c1c(n2Cc2ccc(N)cc2)CCCC1 |
